Molecules are shown by their SMILES. Bounds are passed on as bounds.

In the assay the target is His-Tagged hOGA (human O-GlcNAcase) (Homo sapiens (Human), UniProt O60502). Description: Human O-GlcNAcase enzyme inhibition assay.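 Note: reactions contained 20 nM His-tagged hOGA enzyme with 10 µM FL-GlcNAc substrate.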 In kind it is biochemical. Conditions: OGA enzyme inhibition assay; FL-GlcNAc substrate, pH 6.5; activity classes defined in μM; read-out: OGA IC50.
Sequence of His-Tagged hOGA (human O-GlcNAcase) (O60502 whole entry): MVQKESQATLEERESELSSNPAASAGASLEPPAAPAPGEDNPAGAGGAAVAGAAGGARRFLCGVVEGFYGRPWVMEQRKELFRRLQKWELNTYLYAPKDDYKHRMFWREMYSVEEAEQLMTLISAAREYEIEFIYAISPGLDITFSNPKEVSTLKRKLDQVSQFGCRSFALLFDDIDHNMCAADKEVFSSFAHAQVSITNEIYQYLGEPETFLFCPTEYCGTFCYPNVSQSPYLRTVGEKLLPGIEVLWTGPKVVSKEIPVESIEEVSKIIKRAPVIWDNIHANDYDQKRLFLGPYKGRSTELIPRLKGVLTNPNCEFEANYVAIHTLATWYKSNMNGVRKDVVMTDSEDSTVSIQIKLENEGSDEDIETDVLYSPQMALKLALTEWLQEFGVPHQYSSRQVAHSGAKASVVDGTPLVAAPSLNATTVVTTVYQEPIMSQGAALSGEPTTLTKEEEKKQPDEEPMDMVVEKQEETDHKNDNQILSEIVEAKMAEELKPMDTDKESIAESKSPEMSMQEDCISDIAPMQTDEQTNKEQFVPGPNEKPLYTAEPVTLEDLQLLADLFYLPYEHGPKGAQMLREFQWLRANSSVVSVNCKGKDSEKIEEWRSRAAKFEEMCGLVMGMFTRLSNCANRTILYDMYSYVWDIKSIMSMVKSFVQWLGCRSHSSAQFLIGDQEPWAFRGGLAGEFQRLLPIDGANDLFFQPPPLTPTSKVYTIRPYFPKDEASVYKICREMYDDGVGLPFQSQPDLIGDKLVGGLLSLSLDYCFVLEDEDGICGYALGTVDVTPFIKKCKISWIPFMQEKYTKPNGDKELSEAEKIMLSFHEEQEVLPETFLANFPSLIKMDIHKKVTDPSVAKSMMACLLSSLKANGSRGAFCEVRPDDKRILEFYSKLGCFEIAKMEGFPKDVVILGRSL
Description: Then, 20 nM of His-Tagged hOGA and 10 μM of FL-GlcNAc (Fluorescein mono-beta-D-(2-deoxy-2-N-acetyl) glucopyranoside; Marker Gene Technologies Inc, M1485) were added to the 384-well plate for a final volume of 20 μl.
For `CC(=O)N1CCc2nc(N3CCN(C(C)c4ccc5nccnc5c4)CC3)ncc2C1` (racemic) [Example 6, 1-(2-(4-(1-(quinoxalin-6-yl)ethyl)piperazin-1-yl)-7,8-dihydropyrido[4,3-d]pyrimidin-6(5H)-yl)ethan-1-one], the IC50 was in the range of 0.05 to 0.2 µM.

As to `CC(c1ccc2nccnc2c1)N1CCN(c2ncc3c(n2)CCNC3)CC1` (racemic) [Example 8, 2-(4-(1-(quinoxalin-6-yl)ethyl)piperazin-1-yl)-5,6,7,8-tetrahydropyrido [4,3-d] pyrimidine], the IC50 was less than 0.05 µM.

For `CC(c1ccc2nccnc2c1)N1CCN(c2ncc3c(n2)CCN(C)C3)CC1` (racemic) [Example 9, 6-methyl-2-(4-(1-(quinoxalin-6-yl)ethyl)piperazin-1-yl)-5,6,7,8-tetrahydropyrido[4,3-d]pyrimidine], the IC50 was less than 0.05 µM.

Regarding `CC(=O)N1CCc2nc(N3CCN(C(C)c4ccc5c(c4)OCC5)CC3)sc2C1` (racemic) [Example 10, 1-(2-(4-(1-(2,3-dihydrobenzofuran-6-yl)ethyl)piperazin-1-yl)-6,7-dihydrothiazolo[5,4-c]pyridin-5(4H)-yl)ethan-1-one], the IC50 is less than 0.05 µM.

Turning to `CC(=O)N1CCc2nc(N3CCN(C(C)c4ccc5nccnc5c4)CC3)sc2C1` (racemic) [Example 11, 1-(2-(4-(1-(quinoxalin-6-yl)ethyl)piperazin-1-yl)-6,7-dihydrothiazolo[5,4-c]pyridin-5(4H)-yl)ethan-1-one], the IC50 is 0.05 to 0.2 µM.

Regarding `CC(c1ccc2c(c1)OCC2)N1CCN(c2nc3c(s2)C(=O)N(C)CC3)CC1` (racemic) [Example 13, 2-(4-(1-(2,3-dihydrobenzofuran-6-yl)ethyl)piperazin-1-yl)-5-methyl-6,7-dihydrothiazolo[5,4-c]pyridin-4(5H)-one], the IC50 is less than 0.05 µM.

As for `CC(c1ccc2nccnc2c1)N1CCN(c2nc3c(s2)C(=O)N(C)CC3)CC1` (racemic) [Example 14, 5-methyl-2-(4-(1-(quinoxalin-6-yl)ethyl)piperazin-1-yl)-6,7-dihydrothiazolo[5,4-c]pyridin-4(5H)-one], the IC50 was 0.2 to 1 µM.

In the case of `CC(c1ccc2c(c1)OCC2)N1CCN(c2nc3c(s2)CNCC3)CC1` (racemic) [Example 15, 2-(4-(1-(2,3-dihydrobenzofuran-6-yl)ethyl)piperazin-1-yl)-4,5,6,7-tetrahydrothiazolo[5,4-c]pyridine], the IC50 is less than 0.05 µM.

Turning to `CC(c1ccc2c(c1)OCC2)N1CCN(c2nc3c(s2)CN(C)CC3)CC1` (racemic) [Example 16, 2-(4-(1-(2,3-dihydrobenzofuran-6-yl)ethyl)piperazin-1-yl)-5-methyl-4,5,6,7-tetrahydrothiazolo[5,4-c]pyridine], the IC50 was less than 0.05 µM.

Consider `CC(c1ccc2nccnc2c1)N1CCN(c2nc3c(s2)CNCC3)CC1` (racemic) [Example 19, 2-(4-(1-(quinoxalin-6-yl)ethyl)piperazin-1-yl)-4,5,6,7-tetrahydrothiazolo[5,4-c]pyridine], for which the IC50 lay in the range of 0.05 to 0.2 µM.

Turning to `CC(c1ccc2nccnc2c1)N1CCN(c2nc3c(s2)CN(C)CC3)CC1` (racemic) [Example 20, 5-Methyl-2-(4-(1-(quinoxalin-6-yl)ethyl)piperazin-1-yl)-4,5,6,7-tetrahydrothiazolo[5,4-c]pyridine], the IC50 lay in the range of 0.05 to 0.2 µM.

On to `CC(c1ccc2nccnc2c1)N1CCN(c2n[nH]c(=O)s2)CC1` (racemic) [Example 21, 5-(4-(1-(quinoxalin-6-yl)ethyl)piperazin-1-yl)-1,3,4-thiadiazol-2(3H)-one], for which the IC50 fell in the range of 0.05 to 0.2 µM.

With `CC(c1ccc2nccnc2c1)N1CCC(c2n[nH]c(=O)o2)CC1` (racemic) [Example 22, 5-(1-(1-(quinoxalin-6-yl)ethyl)piperidin-4-yl)-1,3,4-oxadiazol-2(3H)-one], the half-inhibitory concentration (IC50) was 0.2 to 1 µM.

On to `Cc1nnc(C2CCN(C(C)c3ccc4c(c3)OCC4)CC2)o1` (racemic) [Example 23, 2-(1-(1-(2,3-dihydrobenzofuran-6-yl)ethyl)piperidin-4-yl)-5-methyl-1,3,4-oxadiazole], for which the IC50 is less than 0.05 µM.

For `Cc1nnc(C2CCN(C(C)c3ccc4nccnc4c3)CC2)o1` (racemic) [Example 24, 2-methyl-5-(1-(1-(quinoxalin-6-yl)ethyl)piperidin-4-yl)-1,3,4-oxadiazole], the half-inhibitory concentration (IC50) lay in the range of 0.2 to 1 µM.

As to `CC(=O)Nc1cnn(C2CCN(C(C)c3ccc4c(c3)OCC4)CC2)c1` (racemic) [Example 25, N-(1-(1-(1-(2,3-dihydrobenzofuran-6-yl)ethyl)piperidin-4-yl)-1H-pyrazol-4-yl)acetamide], the IC50 was 0.05 to 0.2 µM.

`CC(=O)Nc1cnn(C2CCN(C(C)c3ccc4nccnc4c3)CC2)c1` (racemic) [Example 27, N-(1-(1-(1-(quinoxalin-6-yl)ethyl)piperidin-4-yl)-1H-pyrazol-4-yl)acetamide]: the IC50 fell in the range of 1 to 10 µM.

As for `CC(c1ccc2c(c1)OCC2)N1CCC(n2cc(CO)cn2)CC1` (racemic) [Example 28, (1-(1-(1-(2,3-dihydrobenzofuran-6-yl)ethyl)piperidin-4-yl)-1H-pyrazol-4-yl) methanol], the IC50 was 0.2 to 1 µM.

Regarding `CC(c1ccc2c(c1)OCC2)N1CCC(n2cc(C(F)(F)F)cn2)CC1` (racemic) [Example 29, 1-(1-(2,3-Dihydrobenzofuran-6-yl)ethyl)-4-(4-(trifluoromethyl)-1H-pyrazol-1-yl) piperidine], the IC50 was 0.2 to 1 µM.

For the compound `CC(c1ccc2c(c1)OCC2)N1CCC(n2cc(F)cn2)CC1` (racemic) [Example 30, 1-(1-(2,3-dihydrobenzofuran-6-yl)ethyl)-4-(4-fluoro-1H-pyrazol-1-yl)piperidine], the IC50 was in the range of 0.2 to 1 µM.

For `CCOC(=O)c1cnn(C2CCN(C(C)c3ccc4c(c3)OCC4)CC2)c1` (racemic) [Example 32, Ethyl 1-(1-(1-(2,3-dihydrobenzofuran-6-yl)ethyl)piperidin-4-yl)-1H-pyrazole-4-carboxylate], the IC50 is 0.05 to 0.2 µM.

Regarding `CC(c1ccc2c(c1)OCC2)N1CCC(n2cc(S(C)(=O)=O)cn2)CC1` (racemic) [Example 34, 1-(1-(2,3-dihydrobenzofuran-6-yl)ethyl)-4-(4-(methylsulfonyl)-1H-pyrazol-1-yl)piperidine], the IC50 fell in the range of 0.2 to 1 µM.

Take `CC(O)c1ccc(N2CCN(C(C)c3ccc4c(c3)OCC4)CC2)nn1` (racemic) [Example 35, 1-(6-(4-(1-(2,3-dihydrobenzofuran-6-yl)ethyl)piperazin-1-yl)pyridazin-3-yl)ethan-1-ol]: the IC50 was less than 0.05 µM.

As to `CC(O)c1ccc(N2CCN(C(C)c3ccc4nccnc4c3)CC2)nn1` (racemic) [Example 36, 1-(6-(4-(1-(quinoxalin-6-yl)ethyl)piperazin-1-yl)pyridazin-3-yl)ethan-1-ol], the IC50 lay in the range of 0.2 to 1 µM.

As for `CC(c1ccc2nccnc2c1)N1CCN(c2nnc(CO)s2)CC1` (racemic) [Example 37, (5-(4-(1-(quinoxalin-6-yl)ethyl)piperazin-1-yl)-1,3,4-thiadiazol-2-yl)methanol], the IC50 is 0.2 to 1 µM.

Turning to `CC(c1ccc2c(c1)OCC2)N1CCN(c2ccc(C(F)(F)F)nn2)CC1` (racemic) [Example 40, 3-(4-(1-(2,3-dihydrobenzofuran-6-yl)ethyl)piperazin-1-yl)-6-(trifluoromethyl)pyridazine], the IC50 is less than 0.05 µM.

For the compound `CC(c1ccc2nccnc2c1)N1CCN(c2ccc(F)nn2)CC1` (racemic) [Example 41, 6-(1-(4-(6-Fluoropyridazin-3-yl)piperazin-1-yl)ethyl)quinoxaline], the IC50 was in the range of 0.2 to 1 µM.

`CC(c1ccc2nccnc2c1)N1CCN(c2ccc(C(F)(F)F)nn2)CC1` (racemic) [Example 42, 6-(1-(4-(6-(trifluoromethyl)pyridazin-3-yl)piperazin-1-yl)ethyl)quinoxaline]: the half-inhibitory concentration (IC50) was 0.2 to 1 µM.

Take `CC(c1ccc2nccnc2c1)N1CCN(c2ccc(I)nn2)CC1` (racemic) [Example 43]: the IC50 was 0.2 to 1 µM.

For `Cc1ccc(N2CCN(C(C)c3ccc4nccnc4c3)CC2)nn1` (racemic) [Example 44, 6-(1-(4-(6-Methylpyridazin-3-yl)piperazin-1-yl)ethyl)quinoxaline], the IC50 fell in the range of 0.2 to 1 µM.

With `CC(c1ccc2c(c1)OCC2)N1CCN(c2ccc(S(C)(=O)=O)nn2)CC1` (racemic) [Example 45, 3-(4-(1-(2,3-dihydrobenzofuran-6-yl)ethyl)piperazin-1-yl)-6-(methylsulfonyl)pyridazine], the IC50 is less than 0.05 µM.

`CC(O)c1ccc(N2CCN(C(C)c3ccc4c(c3)OCC4)CC2)nc1` (racemic) [Example 47, 1-(6-(4-(1-(2,3-dihydrobenzofuran-6-yl)ethyl)piperazin-1-yl)pyridin-3-yl)ethan-1-ol]: the IC50 is less than 0.05 µM.

As for `CC(c1ccc2c(c1)OCC2)N1CCN(c2ccc(C(C)(C)O)cn2)CC1` (racemic) [Example 48, 2-(6-(4-(1-(2,3-dihydrobenzofuran-6-yl)ethyl)piperazin-1-yl)pyridin-3-yl)propan-2-ol], the IC50 is less than 0.05 µM.

In the case of `CC(C)C(O)c1ccc(N2CCN(C(C)c3ccc4c(c3)OCC4)CC2)nc1` (racemic) [Example 49, 1-(6-(4-(1-(2,3-dihydrobenzofuran-6-yl)ethyl)piperazin-1-yl)pyridin-3-yl)-2-methylpropan-1-ol], the IC50 was less than 0.05 µM.

With `CC(c1ccc2c(c1)OCC2)N1CCN(c2ccc(C(O)C(F)(F)F)cn2)CC1` (racemic) [Example 50, 1-(6-(4-(1-(2,3-dihydrobenzofuran-6-yl)ethyl)piperazin-1-yl)pyridin-3-yl)-2,2,2-trifluoroethan-1-ol], the IC50 is less than 0.05 µM.

Turning to `CC(c1ccc2nccnc2c1)N1CCN(c2ccc(C(C)(C)O)cn2)CC1` (racemic) [Example 51, 2-(6-(4-(1-(quinoxalin-6-yl)ethyl)piperazin-1-yl)pyridin-3-yl) propan-2-ol], the IC50 is 0.05 to 0.2 µM.

Take `CC(O)c1ccc(N2CCN(C(C)c3ccc4nccnc4c3)CC2)nc1` (racemic) [Example 52, 1-(6-(4-(1-(quinoxalin-6-yl)ethyl)piperazin-1-yl)pyridin-3-yl)ethan-1-ol]: the half-maximal inhibitory concentration (IC50) fell in the range of 0.2 to 1 µM.

`COc1ccc(N2CCN(C(C)c3ccc4nccnc4c3)CC2)cn1` (racemic) [Example 53, 6-(1-(4-(6-methoxypyridin-3-yl)piperazin-1-yl)ethyl)quinoxaline]: the IC50 was 0.2 to 1 µM.

These data come from patent US10556902B2 (Asceneuron SA, priority 2016, dated 2020).
